# Laboratory results taken from patent US7820628B2, “Tumor lesion regression and conversion in situ into autologous tumor vaccines by compositions that result in anti-Gal antibody binding” (University of Massachusetts Medical School, priority 2005, dated 2010).
# Tested on: human natural anti-Gal
# Test: TLC immunostaining of red blood cell glycolipids with human natural anti-Gal
# Assay type: binding
# Details: glycolipids on thin layer chromatography plates
# Source text: A rich source for α-gal glycolipids is rabbit red blood cells. The two major glycosphingolipids (GSL), i.e. glycolipids with ceramide tail, in rabbit red blood cell membranes are ceramide (Cer) trihexoside (CTH, with 3 sugars [hexoses], present also in human red blood cells) with the structure Galα1-4Galβ1-4Glc-Cer and ceramide pentahexoside (CPH, with 5 sugars [hexoses]) with α-gal epitopes as terminal part of the CPH structure of Galα1-3Galβ1-4GlcNAcβ1-3Galβ1-4Glc-Cer (Eto T, Iichikawa Y, Nishimura K, Ando S, Yamakawa T J. Biochem. (Tokyo) 1968; 64: 205-13, and Stellner K, Saito H, Hakomori S. Arch. Biochem. Biophys. 1973; 133: 464-72) (See FIG. 1 and FIG. 6A, lane 1).
# The use of α-gal glycolipids in the clinical setting may require much more material than that isolated from rabbit red blood cell membranes. The logistic limitations in supplies of large amounts of rabbit red blood cells can be overcome by the use of bovine red blood cells (i.e., for example, cow) instead of rabbit red blood cells since there is no practical limit to the amounts of bovine blood which can be supplied for preparation of α-gal glycolipids. […]
substance,measurement,value
Galα1-3Galβ1-4GlcNAcβ1-3Galβ1-4Glc-Cer [CPH],anti-Gal binding on TLC immunostaining,binding of the antibody to CPH
